Experimental data as given in PubChem BioAssay (NCI).
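Step 1: Grow cells in 96-well plates. Step 2: Expose to compound for 48 hours at 5 concentrations. Step 3: Interpolate endpoints linearly; if unreached, use highest concentration. TGI denotes the concentration required for complete inhibition of growth.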

How the values were obtained:
Test in all cases: NCI tumour cell line growth inhibition, 48 h
[1] = tested on: KM20L2 colon
[2] = tested on: SNB-78 CNS
[3] = tested on: DMS 273 small cell lung
[4] = tested on: A549 NSCLC
[5] = tested on: LXFL 529 NSCLC
[6] = tested on: M19-MEL melanoma
[7] = tested on: XF 498 CNS
[8] = tested on: OVCAR-3 ovarian
[9] = tested on: DLD-1 colon
[10] = tested on: TK-10 renal
[11] = tested on: HOP-18 NSCLC
[12] = tested on: LOX IMVI melanoma
[13] = tested on: DMS 114 small cell lung
[14] = tested on: RXF-631 renal
[15] = tested on: SN12K1 renal
[16] = tested on: P388/ADR leukemia
[17] = tested on: P388 leukemia

Row | SMILES | TGI [1] [µM] | TGI [2] [µM] | TGI [3] [µM] | TGI [4] [µM] | TGI [5] [µM] | TGI [6] [µM] | TGI [7] [µM] | TGI [8] [µM] | TGI [9] [µM] | TGI [10] [µM] | TGI [11] [µM] | TGI [12] [µM] | TGI [13] [µM] | TGI [14] [µM] | TGI [15] [µM] | TGI [16] [µM] | TGI [17] [µM]
1 | C#C[C@]1(O)CCC2C3CCc4cc(Oc5nc(F)nc(-c6c7cc8ccccc8cc7c7n6CCS7)n5)ccc4C3CCC21C (stereo partly specified) | 99.6 | > 100 | > 100 | > 100 | > 100 | > 100 | > 100 | > 100 | > 100 | > 100 | > 100 | > 100 | 50.8 | – | – | – | –
2 | N=C(N)c1csc([C@@H]2O[C@H](CO)[C@@H](O)[C@H]2O)n1 | – | > 100 | > 100 | > 100 | > 100 | > 100 | > 100 | – | > 100 | > 100 | > 100 | > 100 | – | > 100 | – | – | –
3 | O=C1C(=O)c2ccccc2C(O)=C1CN(CCCl)CCCl | > 100 | > 100 | – | > 100 | > 100 | > 100 | > 100 | > 100 | > 100 | > 100 | – | – | – | > 100 | – | – | –
4 | CC12CCC(C(=O)N3CC=CCC3)(OC1=O)C2(C)C (stereo unspecified) | > 100 | > 100 | > 100 | > 100 | – | > 100 | > 100 | > 100 | > 100 | – | > 100 | > 100 | > 100 | – | > 100 | > 100 | > 100
5 | COC(=O)c1ccc(N=NN(C)COc2ccc([N+](=O)[O-])cc2)cc1 | > 100 | > 100 | > 100 | > 100 | – | > 100 | > 100 | > 100 | > 100 | – | – | > 100 | > 100 | – | > 100 | > 100 | > 100
